Values quoted from earlier work as cited in US20130121964A1, “Pharmacogenomic and Response-Guided Treatment of Infectious Disease Using Yeast-Based Immunotherapy” (GLOBEIMMUNE, INC., priority 2010, published 2013).

What was measured:
[1] = in vivo

solubility in anhydrous alcohol (anhydrous alcohol): slightly soluble | solubility in water (water): freely soluble
Structure (SMILES): NC(=O)c1ncn([C@@H]2O[C@H](CO)[C@@H](O)[C@H]2O)n1 [Ribavirin, 1-(beta)-D-ribofuranosyl-1H-1,2,4-triazole-3-carboxamide]
patients with hemolytic anemia [1]: 20-30%
